Experimental data published in patent US10925858B2, “S-nitrosoglutathione (GSNO) and GSNO reductase inhibitors for use in therapy” (MUSC FOUNDATION FOR RESEARCH DEVELOPMENT, priority 2017, dated 2021).

Tests used:
[1] = system: protein associated S-nitrosothiols; test: Biotin-switch analysis of protein associated S-nitrosothiols in spleens of EAE mice; assay type: in vivo, C57BL/6 mice; details: vs control and EAE mice
Experimental: Female C57BL/6 mice of 8-12 weeks of age, purchased from Jackson Laboratory, were provided with food and water ad libitum and were kept in pathogen free animal care facility of Medical University of South Carolina (MUSC) throughout the study. All procedures were conducted in accordance with accepted standards of humane care as approved by the Institutional Animal Care and Use Committee (Approved number: AR #1644). EAE was induced as described previously (Nath et al., 2009). Briefly, mice were immunized subcutaneously in the flank regions with MOG35-55 peptide (MOG; 200 μg; Peptide International) emulsified (1:1) in 100 ul complete Freund's adjuvant (CFA) on day 0 and day 7. Additionally, 300 ng of Pertussis toxin (Sigma-Aldrich, St. Louis, Mo.) was given on day 0 and day 2 by i.p. injection. […] Clinical signs of EAE were scored by examiners blinded to experimental treatments using the following scale: 0=no clinical signs of disease; 1=piloerection and sluggish; 2=limp tail (ataxia); 2.5=ataxia with partial hind limb paralysis; 3=full paralysis of hind limb; 3.5=full paralysis of hind limb with paralysis of one fore limb; 4=full paralysis of two limbs; 4.5=moribund stage; 5=death. […]
Protein S-Nitrosylation was detected using the biotin-switch method with slight modification as described in our previous study (Kim et al., 2014). […]

[2] = Edema (brain water content) in CCI rat model of TBI; assay type: in vivo, Sprague Dawley rats; details: 24 hr after TBI; GSNO 0.05 mg/kg i.v. or FeTPPS 3 mg/kg i.v.
Description: All animals used in this study received humane care in compliance with the Medical University of South Carolina's (MUSC) guidance and the National Research Council's criteria for humane care. Animal procedures were approved by the institutional animal care and use committee of MUSC (AR #2703). For generation of CCI model of TBI, young adult male (˜3-4 months old) Sprague Dawley rats weighing between 260-300 g were randomly divided into four groups: 1) TBI animals treated with vehicle (TBI; n=13), 2) TBI with GSNO (0.05 mg/kg body weight/i.v.) treatment (TBI+GSNO; n=13), 3) TBI with FeTPPS (3 mg/kg body weight, i.v.) treatment (TBI+FeTPPS; n=13), 4) sham-operated treated with vehicle (Sham; n=13). The group size was determined by power analysis based on our previous data (Khan et al., 2016b; Khan et al., 2009). Ketamine (90 mg/kg body weight) and xylazine (10 mg/kg body weight) as surgical anesthesia were administered intraperitoneally. Analgesic buprenorphine was administered pre-emptively to alleviate pain following surgery. […]
At 24 h following CCI, animals were euthanized to determine brain water content (edema) as described earlier (Hoda et al., 2009; Khan et al., 2009). […] Each hemisphere was dried at 60° C. for 72 hours, and the dry weight was determined. Water content was calculated in ipsilateral hemisphere as: water content (%)=(wet weight−dry weight)/wet weight×100.

Cc1cc(C(N)=O)ccc1-n1c(CCC(=O)O)ccc1-c1ccc(-n2ccnc2)cc1 [N6022, reference compound]
spleen levels of protein-associated S-nitrosothiols [1]: increased

N[C@@H](CCC(=O)N[C@@H](CSN=O)C(=O)NCC(=O)O)C(=O)O [GSNO, S-nitrosoglutathione]
spleen levels of protein-associated S-nitrosothiols [1]: increased
TBI-induced increase in brain water content [2]: reduced

Cl.O=S(=O)([O-])c1ccc(-c2c3nc(c(-c4ccc(S(=O)(=O)O)cc4)c4ccc([nH]4)c(-c4ccc(S(=O)(=O)O)cc4)c4nc(c(-c5ccc(S(=O)(=O)O)cc5)c5ccc2[nH]5)C=C4)C=C3)cc1.[Fe] [FeTPPS, 5,10,15,20-Tetrakis(4-sulfonatophenyl)porphyrinato Iron (III), Cl, reference compound]
TBI-induced increase in brain water content [2]: reduced
